Results on 16 molecules are retold here after PubChem BioAssay (NCI).

SMILES strings stand for the structures.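 96-well plates; 48 h exposure; 5 concentrations. Endpoints by linear interpolation between flanking doses. Not reached: highest tested concentration assigned. TGI is the concentration that stops growth completely.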 Some results are limits rather than exact numbers.

Test systems include SW-620 colon; LOX IMVI melanoma; MOLT-4 leukemia; SK-MEL-2 melanoma; NCI-H23 lung; NCI/ADR-RES ovarian; UO-31 renal; A498 renal; SF-539 CNS; SK-OV-3 ovarian.
What all share (experiment): growth of human tumour cells (NCI), 48 h

`COC(=O)NC1C(C)OC(OC2C/C=C(/C)C3C=CC4C(OC5CC(OC6CC(OC7CC(O)C(O)C(C)O7)C(OC7CC(O)C(OC)C(C)O7)C(C)O6)C(O)C(C)O5)C(C)CC(C)C4C3(C)/C(O)=C3\C(=O)OC4(CC(C)C(CO)=CC4/C=C\2C)C3=O)CC1(C)[N+](=O)[O-]` (configuration not stated): the TGI is greater than 100 µM with SW-620 colon; 14.8 µM in the experiment on LOX IMVI melanoma; 31.7 µM with MOLT-4 leukemia; 87.2 µM with SK-MEL-2 melanoma; 41.5 µM in the experiment with NCI-H23 lung; greater than 100 µM in the experiment on NCI/ADR-RES ovarian. Also, the results for the TGI with UO-31 renal, in the experiment with A498 renal and with SF-539 CNS were 51.3 µM, 57.9 µM and greater than 100 µM, respectively.
On to `COc1cc([N+](=O)[O-])ccc1N1C(=O)C2c3[nH]c4ccccc4c3C3CCC(C(C)(C)C)CC3C2C1=O` (configuration not stated), for which the TGI with SW-620 colon, in the experiment with SK-OV-3 ovarian, in the experiment on LOX IMVI melanoma, with MOLT-4 leukemia, in the experiment with SK-MEL-2 melanoma and in the experiment with NCI-H23 lung was greater than 100 µM in each case. The TGI in the experiment with NCI/ADR-RES ovarian, with UO-31 renal, in the experiment on A498 renal and in the experiment with SF-539 CNS was greater than 100 µM each time.
For `CC1C(=O)C(C)C(c2ccco2)N(N=O)C1c1ccco1` (configuration not stated), the TGI in the experiment on SW-620 colon, in the experiment on SK-OV-3 ovarian, in the experiment with LOX IMVI melanoma, in the experiment on MOLT-4 leukemia, with SK-MEL-2 melanoma and in the experiment on NCI-H23 lung was greater than 100 µM each time. For the same molecule, the TGI in the experiment with NCI/ADR-RES ovarian, in the experiment with UO-31 renal, with A498 renal and in the experiment with SF-539 CNS was greater than 100 µM each time.
On to `C[N+](C)(C)CCN[N+]1(C)CCCc2ccccc21` (configuration not stated), for which the TGI in the experiment on SW-620 colon is greater than 100 µM; in the experiment on SK-OV-3 ovarian, greater than 100 µM; in the experiment on LOX IMVI melanoma it was greater than 100 µM; in the experiment on MOLT-4 leukemia it was 90.6 µM; in the experiment with SK-MEL-2 melanoma, greater than 100 µM; with NCI-H23 lung, greater than 100 µM. The TGI was greater than 100 µM with NCI/ADR-RES ovarian, greater than 100 µM with UO-31 renal, 35.1 µM in the experiment with A498 renal and greater than 100 µM in the experiment with SF-539 CNS.
On to `Cc1c2cc[n+](C)cc2c(C)c2c1oc1ccccc12`, for which the TGI was determined as 51.4 µM in the experiment with SW-620 colon; 57.8 µM in the experiment on SK-OV-3 ovarian; 19.7 µM with LOX IMVI melanoma; 28.7 µM in the experiment with MOLT-4 leukemia; 15.8 µM with SK-MEL-2 melanoma; 11.2 µM in the experiment with NCI-H23 lung. In addition, the TGI with NCI/ADR-RES ovarian was greater than 100 µM; with UO-31 renal, greater than 100 µM; in the experiment with A498 renal, greater than 69 µM; in the experiment on SF-539 CNS, 13 µM.
Consider `O=C(NC(Cc1ccc(I)cc1)C(=O)O)c1ccc(Cl)cc1` (configuration not stated), for which the TGI in the experiment on SW-620 colon, in the experiment on SK-OV-3 ovarian, in the experiment on LOX IMVI melanoma, with MOLT-4 leukemia, in the experiment with SK-MEL-2 melanoma and in the experiment on NCI-H23 lung was greater than 100 µM each time. For the same molecule, the TGI with NCI/ADR-RES ovarian, in the experiment on UO-31 renal, in the experiment on A498 renal and with SF-539 CNS was greater than 100 µM each time.
For `N=C(N)SCc1cccc([N+](=O)[O-])c1`, the TGI in the experiment with SW-620 colon is greater than 100 µM; in the experiment on SK-OV-3 ovarian, greater than 81.4 µM; in the experiment with LOX IMVI melanoma it was greater than 100 µM; in the experiment with MOLT-4 leukemia it was greater than 91.2 µM; in the experiment with SK-MEL-2 melanoma, greater than 73.7 µM; with NCI-H23 lung it was greater than 83 µM. The TGI is 48.3 µM in the experiment on NCI/ADR-RES ovarian, greater than 77.8 µM with UO-31 renal, greater than 74 µM with A498 renal and 68.3 µM with SF-539 CNS.
Regarding `O=c1c2cc(S(=O)(=O)O)ccc2nc(COc2ccc(Oc3ccc(Cl)cc3Cl)cc2)n1C(=S)Nc1ccc(Cl)cc1`, the TGI was found to be 49.4 µM in the experiment on SW-620 colon; 49 µM in the experiment on SK-OV-3 ovarian; 32 µM in the experiment with LOX IMVI melanoma; 37.4 µM with SK-MEL-2 melanoma; 36.2 µM in the experiment with NCI-H23 lung; 37.9 µM in the experiment on NCI/ADR-RES ovarian. Moreover, the TGI in the experiment on UO-31 renal turned out to be 29.7 µM; with A498 renal, 52.5 µM; in the experiment with SF-539 CNS, 31.9 µM.
As for `c1c2c(cc3c1OCO3)-c1cc3ccc4c(c3c[n+]1CC2)OCO4`, the TGI in the experiment on SW-620 colon is greater than 12.5 µM; in the experiment on SK-OV-3 ovarian, greater than 12.5 µM; with LOX IMVI melanoma it was greater than 8.44 µM; with MOLT-4 leukemia it was greater than 12.5 µM; with SK-MEL-2 melanoma, greater than 12.5 µM; in the experiment on NCI-H23 lung, greater than 12.5 µM. The TGI in the experiment on NCI/ADR-RES ovarian was 1.28 µM; in the experiment on UO-31 renal, greater than 12.5 µM; in the experiment on A498 renal it was greater than 12.5 µM; in the experiment with SF-539 CNS, 3.12 µM.
Take `CCCCCCCN(CCCCCCC)CC(O)c1cc2ccccc2c2cc(Br)ccc12` (configuration not stated): the TGI was greater than 100 µM in the experiment on SW-620 colon; greater than 100 µM in the experiment with SK-OV-3 ovarian; greater than 100 µM in the experiment on LOX IMVI melanoma; greater than 100 µM in the experiment on MOLT-4 leukemia; 69.9 µM in the experiment on SK-MEL-2 melanoma; greater than 100 µM in the experiment on NCI-H23 lung. The TGI in the experiment with NCI/ADR-RES ovarian, with UO-31 renal, in the experiment with A498 renal and with SF-539 CNS was greater than 100 µM throughout.
Consider `c1ccc([P+](c2ccccc2)(c2ccccc2)c2ccc(-c3ccc([P+](c4ccccc4)(c4ccccc4)c4ccccc4)cc3)cc2)cc1`, for which the TGI is greater than 100 µM in the experiment on SW-620 colon; greater than 100 µM with SK-OV-3 ovarian; 51.9 µM with LOX IMVI melanoma; greater than 100 µM with MOLT-4 leukemia; 62 µM in the experiment with SK-MEL-2 melanoma; 55.3 µM in the experiment with NCI-H23 lung. The TGI in the experiment with NCI/ADR-RES ovarian was greater than 100 µM; with A498 renal, 10.3 µM; with SF-539 CNS, greater than 100 µM.
With `Nc1nc(OCC2CCCCC2)c2[nH]cnc2n1`, the TGI in the experiment with SW-620 colon was greater than 100 µM; in the experiment with SK-OV-3 ovarian, 68.5 µM; in the experiment with LOX IMVI melanoma it was 37.7 µM; with MOLT-4 leukemia, greater than 68.8 µM; with SK-MEL-2 melanoma, 22.1 µM; with NCI-H23 lung it was greater than 100 µM. Besides, the TGI in the experiment on NCI/ADR-RES ovarian was greater than 100 µM; in the experiment on UO-31 renal, 38.2 µM; in the experiment on A498 renal, 54.4 µM; in the experiment with SF-539 CNS, 45 µM.
For `CCOP(=O)(OCC)C(Nc1cccc(F)c1)c1ccc(N(C)C)cc1` (configuration not stated), the TGI in the experiment with SW-620 colon, in the experiment with SK-OV-3 ovarian, with LOX IMVI melanoma, in the experiment on MOLT-4 leukemia, in the experiment with SK-MEL-2 melanoma and in the experiment with NCI-H23 lung was greater than 100 µM throughout. Besides, the TGI with NCI/ADR-RES ovarian, in the experiment with UO-31 renal, in the experiment with A498 renal and in the experiment with SF-539 CNS was greater than 100 µM each time.
As to `CN(C)c1ccc(/C=c2/c3ccccc3n3c2cc(NC(=O)NCCC[N+](C)(C)C)[n+]3C)cc1`, the TGI in the experiment on SW-620 colon, in the experiment with SK-OV-3 ovarian, in the experiment with LOX IMVI melanoma, in the experiment on MOLT-4 leukemia, with SK-MEL-2 melanoma and with NCI-H23 lung was greater than 100 µM each time. In addition, the TGI in the experiment on NCI/ADR-RES ovarian, with UO-31 renal, in the experiment on A498 renal and in the experiment with SF-539 CNS was greater than 100 µM throughout.
In the case of `Cc1ccc([N+](=O)[O-])cc1S(=O)(=O)Nc1ccc(C2=NOC(c3ccccc3O)C2)cc1` (configuration not stated), the TGI with SW-620 colon was greater than 100 µM; in the experiment on SK-OV-3 ovarian it was greater than 100 µM; in the experiment with LOX IMVI melanoma, greater than 100 µM; in the experiment with MOLT-4 leukemia, 9.04 µM; in the experiment with SK-MEL-2 melanoma, greater than 100 µM; in the experiment on NCI-H23 lung, 98.4 µM. Moreover, the TGI with NCI/ADR-RES ovarian was 8.53 µM; with UO-31 renal, 1.34 µM; with A498 renal, 32.6 µM; with SF-539 CNS it was greater than 100 µM.
As for `CCO[C@]12CCC[C@H]1[C@@H]1C(=O)c3ccccc3C(=O)C1=C(C)O2`, the TGI is greater than 100 µM in the experiment with SW-620 colon; greater than 100 µM in the experiment on SK-OV-3 ovarian; 44.7 µM in the experiment on LOX IMVI melanoma; greater than 100 µM in the experiment with MOLT-4 leukemia; greater than 100 µM in the experiment with SK-MEL-2 melanoma; greater than 100 µM in the experiment on NCI-H23 lung. Also, the TGI in the experiment on NCI/ADR-RES ovarian, with UO-31 renal, in the experiment with A498 renal and in the experiment with SF-539 CNS was greater than 100 µM each time.
